Source: ChEMBL document CHEMBL3243997, “(Acylaryloxy)acetic acid diuretics. 2. (2-Alkyl-2-aryl-1-oxo-5-indanyloxy)acetic acids” (1978)

Key:
Rattus norvegicus [1] = assay: Natriuretic activity in rat assessed as per cage at 27 mg/kg, po; assay type: functional
Pan troglodytes [2] = assay: Natriuretic activity in chimpanzee assessed as per min at 5 mg/kg, po; assay type: functional
Canis familiaris [3] = assay: Diuretic activity in dog assessed as sodium level in urine per min at 5 mg/kg, iv relative to control; assay type: functional, Canis lupus familiaris
Canis familiaris [4] = assay: Diuretic activity in dog assessed as chloride level in urine per min at 5 mg/kg, iv relative to control; assay type: functional, Canis lupus familiaris
Rattus norvegicus [5] = assay: Natriuretic activity in rat assessed as per cage at 9 mg/kg, po; assay type: functional
Canis familiaris [6] = assay: Diuretic activity in dog assessed as […] urine volume at 5 mg/kg, iv relative to control; assay type: functional, Canis lupus familiaris
Pan troglodytes [7] = assay: Natriuretic activity in chimpanzee assessed as change in Curate to Cinsulin ratio at 5 mg/kg, po; assay type: functional
Rattus norvegicus [8] = assay: Natriuretic activity in rat assessed as per cage at 81 mg/kg, po; assay type: functional
Rattus norvegicus [9] = assay: Natriuretic activity in rat assessed as per cage at 3 mg/kg, po; assay type: functional
Canis familiaris [10] = assay: Diuretic activity in dog assessed as potassium level in urine per min at 1 mg/kg, iv relative to control; assay type: functional, Canis lupus familiaris
Canis familiaris [11] = assay: Diuretic activity in dog assessed as chloride level in urine per min at 1 mg/kg, iv relative to control; assay type: functional, Canis lupus familiaris
Canis familiaris [12] = assay: Diuretic activity in dog assessed as […] urine volume at 1 mg/kg, iv relative to control; assay type: functional, Canis lupus familiaris
Canis familiaris [13] = assay: Diuretic activity in dog assessed as sodium level in urine per min at 1 mg/kg, iv relative to control; assay type: functional, Canis lupus familiaris

Row | SMILES | Activity (Rattus norvegicus [1]) | Activity (Pan troglodytes [2]) | Activity (Canis familiaris [3]) | Activity (Canis familiaris [4]) | Activity (Rattus norvegicus [5]) | Activity (Canis familiaris [6]) | Ratio (Pan troglodytes [7]) | Activity (Rattus norvegicus [8]) | Activity (Rattus norvegicus [9]) | further results
1 | Cc1c(OCC(=O)O)cc2c(c1Cl)C(=O)C(C)(c1ccccc1)C2 (configuration not stated) | 1.38 mEq | 479 uEq | 226 µEq/min | 262 µEq/min | 1.16 mEq | 4 mL | 0.31 | 1.62 mEq | 1.35 mEq | 
2 | CCC1(c2ccccc2)Cc2cc(OCC(=O)O)c(Cl)c(Cl)c2C1=O (configuration not stated) | 1.19 mEq | 369 uEq | 431 µEq/min | 396 µEq/min | 1.15 mEq | 4 mL | 0.12 | 1.34 mEq | 0.75 mEq | 
3 | O=C(O)COc1cc2c(c(Cl)c1Cl)C(=O)C(c1ccccc1)(C1CCCC1)C2 (configuration not stated) | 0.31 mEq | 47 uEq | 11 µEq/min | 0.9 µEq/min | 0.4 mEq | 0.8 mL | 0 | 0.35 mEq | 0.79 mEq | 
4 | O=C(O)COc1cc2c(c(Cl)c1Cl)C(=O)C(c1ccccc1)(c1ccccc1)C2 | 1.09 mEq | 19 uEq | 44 µEq/min | 5 µEq/min | 0.93 mEq | 2 mL | 0.03 | 0.95 mEq | 0.4 mEq | 
5 | O=C(O)COc1cc2c(c(Cl)c1Cl)C(=O)C1(c3ccccc3)CCCCC21 (configuration not stated) | 0.86 mEq | 137 uEq | 276 µEq/min | 211 µEq/min | 0.65 mEq | 4 mL | 0.08 | 1.17 mEq | 0.47 mEq | 
6 | CC1(c2ccc(F)cc2)Cc2cc(OCC(=O)O)c(Cl)c(Cl)c2C1=O (configuration not stated) | 1.23 mEq | 310 uEq | 352 µEq/min | 362 µEq/min | 0.86 mEq | 3 mL | 0.43 | 1.73 mEq | 1.01 mEq | 
7 | CC1(c2ccc(Cl)cc2)Cc2cc(OCC(=O)O)c(Cl)c(Cl)c2C1=O (configuration not stated) | 0.25 mEq | 302 uEq | 305 µEq/min | 282 µEq/min | 0.3 mEq | 6 mL | 0.25 | 0.37 mEq | 0.21 mEq | 
8 | CC1(c2ccc(Br)cc2)Cc2cc(OCC(=O)O)c(Cl)c(Cl)c2C1=O (configuration not stated) | 0.27 mEq | 27 uEq | 96 µEq/min | 34 µEq/min | 0.29 mEq | 3 mL | 0.01 | 0.42 mEq | 0.21 mEq | 
9 | COc1ccc(C2(C)Cc3cc(OCC(=O)O)c(Cl)c(Cl)c3C2=O)cc1 (configuration not stated) | 1.29 mEq | 459 uEq |  |  | 0.76 mEq |  | 0.01 |  | 0.45 mEq | 
10 | CC1(c2cccs2)Cc2cc(OCC(=O)O)c(Cl)c(Cl)c2C1=O (configuration not stated) | 1.41 mEq | 416 uEq | 503 µEq/min | 598 µEq/min | 0.79 mEq | 5 mL | 0.47 | 1.77 mEq | 0.46 mEq | 
11 | CC1(c2ccc(N)cc2)Cc2cc(OCC(=O)O)c(Cl)c(Cl)c2C1=O (configuration not stated) | 0.98 mEq | 244 uEq | 1130 µEq/min | 1180 µEq/min | 0.53 mEq | 10 mL | 0.1 | 1.34 mEq | 0.33 mEq | 
12 | CC1(c2ccc(O)cc2)Cc2cc(OCC(=O)O)c(Cl)c(Cl)c2C1=O (configuration not stated) | 0.35 mEq | 151 uEq | 1260 µEq/min | 1460 µEq/min | 0.33 mEq | 10 mL | 0.02 |  | 0.17 mEq | 
13 | CC1(c2ccc(CN)cc2)Cc2cc(OCC(=O)[O-])c(Cl)c(Cl)c2C1=O.[Na+] (configuration not stated) | 0.27 mEq | 135 uEq | 497 µEq/min | 424 µEq/min | 0.17 mEq | 5 mL | 0 | 0.19 mEq | 0.18 mEq | 
14 | CC1(c2ccc([N+](=O)[O-])cc2)Cc2cc(OCC(=O)O)c(Cl)c(Cl)c2C1=O (configuration not stated) | 1.68 mEq | 176 uEq | 751 µEq/min | 810 µEq/min | 1.02 mEq | 8 mL | 0.03 | 1.98 mEq | 0.89 mEq | 
15 | CC1(c2ccc(S(N)(=O)=O)cc2)Cc2cc(OCC(=O)O)c(Cl)c(Cl)c2C1=O (configuration not stated) | 0.86 mEq | 674 uEq |  |  | 0.29 mEq |  | 0 |  | 0.32 mEq | 
16 | CC(=O)c1ccc(C2(C)Cc3cc(OCC(=O)O)c(Cl)c(Cl)c3C2=O)cc1 (configuration not stated) | 0.81 mEq | 608 uEq |  |  | 0.62 mEq |  | 0.08 | 1.63 mEq | 0.49 mEq | 
17 | CC1(c2ccccc2)Cc2cc(OCc3nnn[nH]3)c(Cl)c(Cl)c2C1=O (configuration not stated) | 0.2 mEq | 44 uEq | 279 µEq/min | 245 µEq/min | 0.17 mEq | 3 mL | 0.09 | 0.4 mEq | 0.28 mEq | 
18 | CC1(c2ccccc2)Cc2cc(OCC(=O)O)c(Cl)c(Cl)c2C1=O (racemic) [INDACRINONE] |  |  |  |  |  |  |  |  |  | Activity (Rattus norvegicus [1]; 27 mg/kg): 1.29 mEq; Activity (Pan troglodytes [2]; 5 mg/kg): 409 uEq; Activity (Canis familiaris [3]; 5 mg/kg): 920 µEq/min; Activity (Canis familiaris [4]; 5 mg/kg): 1010 µEq/min; Activity (Rattus norvegicus [5]; 9 mg/kg): 0.97 mEq; Activity (Canis familiaris [6]; 5 mg/kg): 8 mL; Ratio (Pan troglodytes [7]; 5 mg/kg): 0.38; Activity (Rattus norvegicus [8]; 81 mg/kg): 1.89 mEq; Activity (Rattus norvegicus [9]; 3 mg/kg): 0.86 mEq
19 | CC1(c2ccccc2)Cc2cc(OCC(=O)O)c(Cl)c(Cl)c2C1=O (single isomer, unassigned; (+)) [INDACRINONE] |  |  |  |  |  |  |  |  |  | Activity (Rattus norvegicus [1]; 27 mg/kg): 0.71 mEq; Activity (Pan troglodytes [2]; 5 mg/kg): 221 uEq; Activity (Canis familiaris [3]; 5 mg/kg): 221 µEq/min; Activity (Canis familiaris [4]; 5 mg/kg): 304 µEq/min; Activity (Rattus norvegicus [5]; 9 mg/kg): 0.38 mEq; Activity (Canis familiaris [6]; 5 mg/kg): 4 mL; Ratio (Pan troglodytes [7]; 5 mg/kg): 0.16; Activity (Rattus norvegicus [8]; 81 mg/kg): 0.88 mEq; Activity (Rattus norvegicus [9]; 3 mg/kg): 0.77 mEq
20 | CC1(c2ccccc2)Cc2cc(OCC(=O)O)c(Cl)c(Cl)c2C1=O (single isomer, unassigned; (-)) [INDACRINONE] |  |  |  |  |  |  |  |  |  | Activity (Rattus norvegicus [1]; 27 mg/kg): 1.79 mEq; Activity (Pan troglodytes [2]; 5 mg/kg): 743 uEq; Activity (Canis familiaris [3]; 5 mg/kg): 314 µEq/min; Activity (Canis familiaris [4]; 5 mg/kg): 360 µEq/min; Activity (Rattus norvegicus [5]; 9 mg/kg): 1.21 mEq; Ratio (Pan troglodytes [7]; 5 mg/kg): 0.28; Activity (Rattus norvegicus [8]; 81 mg/kg): 2.71 mEq; Activity (Rattus norvegicus [9]; 3 mg/kg): 1.01 mEq
21 | NS(=O)(=O)c1cc(C(=O)O)c(NCc2ccco2)cc1Cl [FUROSEMIDE] | 1.25 mEq | 1035 uEq |  |  | 0.07 mEq |  | -0.02 | 2.44 mEq |  | Activity (Canis familiaris [10]): 141 milliequivalent; Activity (Canis familiaris [11]): 1080 µEq/min; Activity (Canis familiaris [12]): 3 mL; Activity (Canis familiaris [13]): 960 milliequivalent
22 | NS(=O)(=O)c1cc2c(cc1Cl)NCNS2(=O)=O [HYDROCHLOROTHIAZIDE] |  | 144 uEq | 166 µEq/min | 156 µEq/min | 1.12 mEq | 3 mL |  |  |  | 
23 | CCCN(CCC)S(=O)(=O)c1ccc(C(=O)O)cc1 [PROBENECID] |  |  |  |  |  |  | 0.05 |  |  | 
